We go through four compounds from PMC5613068, “Resolving distinct molecular origins for copper effects on PAI-1” (Journal of Biological Inorganic Chemistry, 2017).

For test [1], the target named is PAI-1. Also on record: method as in PMID 12067733, PMID 10764685. The note with it: read-out: K d of VN binding to PAI-1; cited from earlier work.
For test [2], the target named is PAI-1. Also on record: method as in PMID 21280128. The note with it: read-out: K d of copper binding to PAI-1; cited from earlier work.
In test [3] the target is vitronectin (Homo sapiens) (UniProt P04004). The conditions noted are these: cited from earlier work.
vitronectin (Homo sapiens), sequence (P04004 399-478): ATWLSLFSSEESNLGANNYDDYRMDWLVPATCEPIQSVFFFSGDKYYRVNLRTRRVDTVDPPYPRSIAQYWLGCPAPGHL
Test [4] addresses vitronectin SMB domain (Homo sapiens) (UniProt P04004). The note with it: cited from earlier work.
For test [5], the target named is tPA (Homo sapiens, UniProt P00750). As to the kind of experiment: PAI-1 activity measurement (inhibition of tPA at varying molar ratios). The note with it: purified active protein. The test is classed as biochemical. How it is done:
The activity of wild-type and variant forms of PAI-1 was measured using standard assays. PAI-1 was mixed with tPA at varying molar ratios ranging from 0.25 to 4 (PAI-1:tPA). The inhibitory capacity of PAI-1 was measured in a gel-based assay, wherein the PAI-1/tPA complex at each molar ratio was monitored and quantified by densitometry. PAI-1 inhibition of proteases was also measured in a kinetic assay in which the tPA-substrate (Spectrozyme tPA, Sekisui Diagnostics) was added to the mixture containing PAI-1 and tPA. Cleavage of the p-nitroanaline group of Spectrozyme tPA was detected by absorbance at 405 nm, allowing for the measurement of tPA activity over time at each molar ratio of PAI-1:tPA. […] Latent PAI-1 was generated by dilution in buffer (50 mM sodium phosphate, 300 mM NaCl, 1 mM EDTA, pH 6.25) to a 5 μM concentration, and incubation at 37 °C with light stirring for 6 days. The aforementioned activity measurements were performed to confirm that no active PAI-1 remained in the mixture.

Test [6] can be described thus: Isothermal titration calorimetry of Cu(II) binding to PAI-1. The note with it: 10 °C; for pKd / K obs: one-site model; for pKd: K d = 1/K obs. How it is done: Isothermal titration calorimetry (ITC) was used to determine the thermodynamic parameters associated with Cu(II) interactions with PAI-1. Active and latent forms of wild-type and variants of PAI-1 were dialyzed into 100 mM MOPS, 250 mM (NH4)2SO4 at 10 °C for 2 h. Because of the relative instability of the H2AH3A variant of PAI-1, our studies on H2AH3A PAI-1 utilized a variant that contained an additional mutation, W175F. […] Residue 175 is not proximal to the N terminus and is not involved in metal ion coordination or its subsequent effects on PAI-1 stability. Copper solutions were prepared by diluting CuSO4 into the matched dialysate buffer. The copper stock concentration was verified using atomic absorbance spectroscopy, and the pH corrected to 7.4 at 10 °C using NaOH. Twenty micromolar PAI-1 (2.2 mL total volume) and copper solution (4 mL) were degassed under vacuum for 10 min at 5 °C prior to loading into the (Malvern) MicroCal VP-ITC. The PAI-1 solution was loaded into the ITC cell (1.394 mL), and the copper solution was loaded into the ITC syringe. The reference and experimental ITC cells were equilibrated to 10 °C prior to the start of the experiment. After a preliminary injection of 2 µL, each additional injection consisted of a 4 µL injection at 120 or 240 s intervals. Experiments were performed at least in duplicate. Control experiments measuring dilution heats were performed in which the copper solution was injected into buffer. The data were baseline corrected using NITPIC software (University of Texas, Southwestern), and fit to either a single-site or two-site non-symmetric binding model in SEDPHAT (National Institutes of Health). The data and fits were represented using GUSSI software (University of Texas, Southwestern).
On the technique in general: ITC needs no label: the signal is the heat of the interaction.

Test [7] can be described thus: Metal ion titration gel assay (copper sensitivity of PAI-1 latency, PAI-1/tPA complex densitometry). Type of test: biochemical. The note with it: 4 µM PAI-1, 30 min, 37 °C, 50 mM MOPS, 100 mM (NH4)2SO4 pH 7.4, total Cu(II) 5-1000 µM, non-equilibrium. The procedure:
To determine the Cu(II) concentrations required to induce accelerated PAI-1 latency, we used a gel-based metal ion titration assay. Serial dilutions of CuSO4 were prepared, resulting in final Cu(II) concentrations ranging from 5 to 1000 μM. […] Incubation with metal was initiated by adding PAI-1 at a final concentration of 4 μM and maintaining the mixture at 37 °C in 50 mM MOPS, 100 mM (NH4)2SO4 pH 7.4 for 30 min. After the 30-min incubation, PAI-1 was mixed in a 1:1 ratio with single-chain tPA (Molecular Innovations). Three control samples (PAI-1, tPA, and PAI-1/tPA) were also tested in which copper is not included. Non-reducing SDS-PAGE dye was added to each sample, followed by boiling for 10 min prior to loading on the gel. The free/latent PAI-1, free tPA, and PAI-1/tPA complex in each sample were separated and visualized by SDS-PAGE electrophoresis in a 4–12% gradient gel (Invitrogen). Samples were subjected to electrophoresis at 150 V for 75 min. SDS-PAGE gels were stained with Coomassie blue dye overnight, followed by three destaining steps of 90 min in deionized water containing 30% methanol and 7.5% glacial acetic acid. Gel pictures were captured using a ChemiDoc XRS molecular imager (Biorad), and gel band densitometry of the PAI-1/tPA complex bands was performed using Imagelab (Biorad). […]

pKd: −log10 of the molar value. Like-named read-outs stand apart in the source and are kept apart here.

PAI-1 (from UniProt P05121), sequence (P05121 24-402): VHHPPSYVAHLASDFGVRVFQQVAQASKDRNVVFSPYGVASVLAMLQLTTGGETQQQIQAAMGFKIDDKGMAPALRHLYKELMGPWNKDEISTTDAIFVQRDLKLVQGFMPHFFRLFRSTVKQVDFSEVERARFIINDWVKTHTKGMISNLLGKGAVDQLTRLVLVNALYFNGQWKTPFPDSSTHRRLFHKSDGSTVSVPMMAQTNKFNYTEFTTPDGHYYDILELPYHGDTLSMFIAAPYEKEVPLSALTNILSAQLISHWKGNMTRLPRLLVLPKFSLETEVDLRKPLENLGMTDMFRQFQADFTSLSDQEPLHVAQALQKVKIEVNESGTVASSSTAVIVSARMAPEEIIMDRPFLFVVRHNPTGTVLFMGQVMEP
tPA, sequence (P00750 311-562 limits assumed): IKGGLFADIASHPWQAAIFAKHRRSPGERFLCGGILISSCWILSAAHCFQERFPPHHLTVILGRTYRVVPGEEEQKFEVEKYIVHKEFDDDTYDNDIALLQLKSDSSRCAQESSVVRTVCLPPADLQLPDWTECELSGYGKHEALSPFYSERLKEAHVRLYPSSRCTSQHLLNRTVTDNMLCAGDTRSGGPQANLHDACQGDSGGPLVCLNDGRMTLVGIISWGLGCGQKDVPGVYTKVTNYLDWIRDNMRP
vitronectin SMB domain (Homo sapiens), sequence (P04004 17-66): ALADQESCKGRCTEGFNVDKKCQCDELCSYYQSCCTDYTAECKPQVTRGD

With “VN: Vitronectin, glycoprotein that binds and stabilizes active PAI-1”, the pKd in test [1] is ~10.00.
Take `O=S(=O)([O-])[O-].[Cu+2]` [Copper, CuSO4]: the pKd in test [2] was ~7.05.
On to PAI-1 (from UniProt P05121), for which the pKd in test [3] is 10.00; in test [4], 9.00.
As for “plasminogen activator inhibitor-1 [Wild-type]”, in test [5], the “molar equivalents of PAI-1 that fully inhibit tPA” value was 1.25 molar equivalents. Moreover, the pKd is 7.89 in test [6] ([Cu(II)] 650 µM), 7.72 in test [6] ([Cu(II)] 700 µM), 7.70 in test [6] ([Cu(II)] 750 µM) and 7.62 in test [6] ([Cu(II)] 800 µM). The figures for the K obs in test [6] ([Cu(II)] 750 µM) and in test [6] ([Cu(II)] 800 µM) were 4.8 (±5.5) × 10^7 M^−1 and 4.1 (±2.8) × 10^7 M^−1, respectively. In test [6] (single-site model, average of replicate data), the “average K obs” value worked out at 5.4e+07 M⁻¹. Further, the entries for the “Copper sensitivity (midpoint Cu(II) concentration at which 50% PAI-1/tPA complex is observed)” value in test [7] and in test [7] (listed as wild-type PAI-1) were 150 µM and “approximately 150 µM”, respectively.
